# Results from patent US20250282799A1, “SUBSTITUTED PYRIDO[4,3-d]PYRIMIDINES AS KRAS MODULATORS” (Alterome Therapeutics, Inc., priority 2023, published 2025).
# System: KRAS G12V dependent lung adenocarcinoma cell line, NCI-H441
# Test: Cellular pERK (Thr202/Tyr204) FRET/HTRF assay
# Assay type: cell-based
# Conditions: Homo sapiens, NCI-H441, cellular pERK (Thr202/Tyr204) HTRF, NCI-H441 cells
# How it was run: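 Using a mix-and-read HTRF kit, phospho-ERK (Thr202/Tyr204) was detected in NCI-H441 lysates following 1 hr compound incubation at 37 °C, 5% CO2. Cells had been seeded overnight beforehand, and IC50 was derived by curve fitting.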
row,Compound,IC50 [µM]
1,"[2H]C([2H])(Oc1nc(N2CCOC[C@@H]3[C@H]2[C@@]3([2H])F)c2cnc(-c3cc(N)cc4ccc(F)c(C#C)c34)c(F)c2n1)[C@@]12CCCN1C[C@H](F)C2 [Example 185, 5-ethynyl-6-fluoro-4-(8-fluoro-4-((1S,7S,8S)-8-fluoro-5-oxa-2-azabicyclo[5.1.0]octan-2-yl-8-d)-2-(((2R,7aS)-2-fluorotetrahydro-1H-pyrrolizin-7a(5H)-yl)methoxy-d2)pyrido[4,3-d]pyrimidin-7-yl)naphthalen-2-amine]",< 0.05
2,"[2H]C([2H])(Oc1nc(N2CCOC[C@H]3[C@H](Cl)[C@H]32)c2cnc(-c3cccc4ccc(F)c(C#C)c34)c(F)c2n1)[C@@]12CCCN1C[C@H](F)C2 [Example 290, (1S,7S,8S)-8-chloro-2-(7-(8-ethynyl-7-fluoronaphthalen-1-yl)-8-fluoro-2-(((2R,7aS)-2-fluorotetrahydro-1H-pyrrolizin-7a(5H)-yl)methoxy-d2)pyrido[4,3-d]pyrimidin-4-yl)-5-oxa-2-azabicyclo[5.1.0]octane]",< 0.05

# Results, then the molecule that gave them:
row,IC50 [µM],Compound
1,< 0.05,"[2H]C([2H])(F)Oc1c(F)ccc2cccc(-c3ncc4c(N5CCOC[C@H]6[C@H](F)[C@H]65)nc(OC[C@]56CC(=C)CN5CCC65CC5)nc4c3F)c12 [Example 384, (1S,7S,8S)-8-fluoro-2-(8-fluoro-7-(7-fluoro-8-(fluoromethoxy-d2)naphthalen-1-yl)-2-(((R)-6′-methylenetetrahydrospiro[cyclopropane-1,1′-pyrrolizin]-7a′(5′H)-yl)methoxy)pyrido[4,3-d]pyrimidin-4-yl)-5-oxa-2-azabicyclo[5.1.0]octane]"
2,< 0.05,"C=C1CN2CCC[C@@]2(COc2nc(N3CCOC[C@H]4[C@H](F)[C@H]43)c3cc(C(F)(F)F)c(-c4ccc(F)c5sc(N)c(C#N)c45)c(F)c3n2)C1 (atropisomer, axis not shown) [Example 432, 2-amino-7-fluoro-4-((S)-8-fluoro-4-((1S,7S,8S)-8-fluoro-5-oxa-2-azabicyclo[5.1.0]octan-2-yl)-2-(((S)-2-methylenetetrahydro-1H-pyrrolizin-7a(5H)-yl)methoxy)-6-(trifluoromethyl)quinazolin-7-yl)benzo[b]thiophene-3-carbonitrile]"
3,0.5 to 10,"Cc1c(F)c(N)cc(-c2ncc3c(N4CCCC[C@H]5[C@H](F)[C@H]54)nc(OC[C@@]45CCCN4CC(=C(F)F)C5)nc3c2F)c1C(F)(F)F [Example 394, 5-(2-(((S)-2-(difluoromethylene)tetrahydro-1H-pyrrolizin-7a(5H)-yl)methoxy)-8-fluoro-4-((1S,7R,8S)-8-fluoro-2-azabicyclo[5.1.0]octan-2-yl)pyrido[4,3-d]pyrimidin-7-yl)-2-fluoro-3-methyl-4-(trifluoromethyl)aniline]"
4,< 0.05,"Nc1cc(Cl)c(C(F)(F)F)c(-c2ncc3c(N4CCCC[C@H]5[C@H](F)[C@H]54)nc(OC[C@@]45CCCN4C/C(=C\F)C5)nc3c2F)c1 [Example 373, 3-chloro-5-(8-fluoro-4-((1S,7R,8S)-8-fluoro-2-azabicyclo[5.1.0]octan-2-yl)-2-(((S,Z)-2-(fluoromethylene)tetrahydro-1H-pyrrolizin-7a(5H)-yl)methoxy)pyrido[4,3-d]pyrimidin-7-yl)-4-(trifluoromethyl)aniline]"

# Same assay, conditions: Homo sapiens, NCI-H441, cellular pERK HTRF, NCI-H441 (KRAS G12V) cells
row,IC50 [µM],Compound
1,< 0.05,"[2H]C([2H])(Oc1nc(N2CCCC[C@H]3[C@H](F)[C@H]32)c2cnc(-c3cc(O)cc4ccc(F)c(C#C)c34)c(C)c2n1)[C@]12CC(=C)CN1CCC21CC1 [Example 462, 5-Ethynyl-6-fluoro-4-(4-((1S,7R,8S)-8-fluoro-2-azabicyclo[5.1.0]octan-2-yl)-8-methyl-2-(((R)-6′-methylenetetrahydrospiro[cyclopropane-1,1′-pyrrolizin]-7a′(5′H)-yl)methoxy-d2)pyrido[4,3-d]pyrimidin-7-yl)naphthalen-2-ol]"
2,< 0.05,"[2H]C([2H])(Oc1nc(N2CCOC[C@H]3[C@H](F)[C@H]32)c2cnc(-c3cc(N)cc4ccc(F)c(C#C)c34)c(CC)c2n1)[C@@]12CCCN1C[C@H](F)C2 [Example 456, 4-(8-Ethyl-4-((1S,7S,8S)-8-fluoro-5-oxa-2-azabicyclo[5.1.0]octan-2-yl)-2-(((2R,7aS)-2-fluorotetrahydro-1H-pyrrolizin-7a(5H)-yl)methoxy-d2)pyrido[4,3-d]pyrimidin-7-yl)-5-ethynyl-6-fluoronaphthalen-2-amine]"

# Same assay, conditions: Homo sapiens, NCI-H441, pERK HTRF, NCI-H441 cells (KRAS G12V)
row,Compound,IC50 [µM]
1,"[2H]C([2H])(Oc1nc(N2CCC3CC3CC2)c2cnc(-c3cc(N)cc4cc(F)c(F)c(C#C)c34)c(F)c2n1)[C@@]12CCCN1C[C@H](F)C2 (stereo partly drawn) [Example 9, 4-(4-(4-Azabicyclo[5.1.0]octan-4-yl)-8-fluoro-2-(((2R,7aS)-2-fluorotetrahydro-1H-pyrrolizin-7a(5H)-yl)methoxy-d2)pyrido[4,3-d]pyrimidin-7-yl)-5-ethynyl-6,7-difluoronaphthalen-2-amine]",0.05 to 0.5
2,"[2H]C([2H])(F)Oc1c(F)ccc2cccc(-c3ncc4c(N5CCCC[C@H]6[C@H](F)[C@H]65)nc(OC([2H])([2H])[C@@]56CCCN5C[C@H](F)C6)nc4c3F)c12 [Example 72, 8-Fluoro-7-(7-fluoro-8-(fluoromethoxy-d2)naphthalen-1-yl)-4-((1S,7R,8S)-8-fluoro-2-azabicyclo[5.1.0]octan-2-yl)-2-(((2R,7aS)-2-fluorotetrahydro-1H-pyrrolizin-7a(5H)-yl)methoxy-d2)pyrido[4,3-d]pyrimidine]",< 0.05

# Results, then the molecule that gave them:
row,IC50 [µM],Compound
1,< 0.05,"[2H]C([2H])(Oc1nc(N2CCCO[C@H]3C[C@H]32)c2cnc(-c3cc(O)cc4ccc(F)c(C#C)c34)c(F)c2n1)[C@@]12CCCN1C[C@H](F)C2 [Example 10, 4-(4-((1S,7R)-2-Oxa-6-azabicyclo[5.1.0]octan-6-yl)-8-fluoro-2-(((2R,7aS)-2-fluorotetrahydro-1H-pyrrolizin-7a(5H)-yl)methoxy-d2)pyrido[4,3-d]pyrimidin-7-yl)-5-ethynyl-6-fluoronaphthalen-2-ol]"
2,< 0.05,"[2H]C([2H])([2H])Oc1c(F)ccc2cccc(-c3ncc4c(N5CCCC[C@H]6[C@H](F)[C@H]65)nc(OC([2H])([2H])[C@@]56CCCN5C[C@H](F)C6)nc4c3F)c12 [Example 68, 8-Fluoro-7-(7-fluoro-8-(methoxy-d3)naphthalen-1-yl)-4-((1S,7R,8S)-8-fluoro-2-azabicyclo[5.1.0]octan-2-yl)-2-(((2R,7aS)-2-fluorotetrahydro-1H-pyrrolizin-7a(5H)-yl)methoxy-d2)pyrido[4,3-d]pyrimidine]"
3,< 0.05,"[2H]C([2H])(Oc1nc(N2CCCO[C@H]3C[C@H]32)c2cnc(-c3cc(N)cc4cc(F)c(F)c(C#C)c34)c(F)c2n1)[C@@]12CCCN1C[C@H](F)C2 [Example 17, 4-(4-((1S,7R)-2-Oxa-6-azabicyclo[5.1.0]octan-6-yl)-8-fluoro-2-(((2R,7aS)-2-fluorotetrahydro-1H-pyrrolizin-7a(5H)-yl)methoxy-d2)pyrido[4,3-d]pyrimidin-7-yl)-5-ethynyl-6,7-difluoronaphthalen-2-amine]"
4,< 0.05,"[2H]C([2H])([2H])Oc1c(F)ccc2cccc(-c3ncc4c(N5CCCO[C@H]6[C@H](F)[C@H]65)nc(OC([2H])([2H])[C@@]56CCCN5C[C@H](F)C6)nc4c3F)c12 [Example 86, (1R,7S,8R)-8-Fluoro-6-(8-fluoro-7-(7-fluoro-8-(methoxy-d3)naphthalen-1-yl)-2-(((2R,7aS)-2-fluorotetrahydro-1H-pyrrolizin-7a(5H)-yl)methoxy-d2)pyrido[4,3-d]pyrimidin-4-yl)-2-oxa-6-azabicyclo[5.1.0]octane]"
